Assay results taken from patent US20210278408A1, “METHODS OF TREATMENT OF CANCER WITH SUBSTITUTED PYRROLE AND PYRAZOLE COMPOUNDS AND DIAGNOSIS OF CANCERS SUSCEPTIBLE TO TREATMENT WITH SUBSTITUTED PYRROLE AND PYRAZOLE COMPOUNDS” (Bantam Pharmaceutical, LLC, priority 2018, published 2021).
pIC50: −log10 of the molar value. Like-named read-outs stand apart in the source and are kept apart here.

System: 407 cancer cell lines
Experiment: Cell viability of cancer cell lines (IC50), CellTiter-Glo Viability Assay, 96 h
Assay type: cell-based
Settings: for pIC50: read-out: Absolute IC50
Description: Viability was determined by using the 50% inhibitory concentration (IC50) as determined with the CellTiter-Glo® Viability Assay (Promega).
Experiments were initiated by first thawing and equilibrating the CellTiter-Glo® Buffer to room temperature. The lyophilized CellTiter-Glo® Substrate was also equilibrated to room temperature. The lyophilized substrate was reconstituted with the CellTiter-Glo® buffer to form the CellTiter-Glo® Reagent.
Cells were harvested during the logarithmic growth period, counted, and the cell concentration adjusted to 4.44×10^4 cells/mL using culture medium.
Cells were allowed to grow overnight and the following day, the TO reading was obtained by adding 10 μL culture medium to each well of Plate A. The plate was allowed to equilibrate at room temperature for thirty minutes, after which 50 μL CellTiter-Glo® reagent was added to each well. The contents were mixed for 5 min on an orbital shaker to induce cell lysis. Plates were incubated for 20 minutes to stabilize the luminescent signal and the TO luminescence recorded.
Test plate B was incubated for 96 h in the humidified incubator at 37° C. with 5% CO2.
Following the incubation, the plate was equilibrated at room temperature for thirty minutes. CellTiter-Glo® (50 μL) was added to each well of the plate and contents mixed for five minutes on an orbital shaker to induce cell lysis. The luminescent signal was allowed to stabilize at room temperature for 20 minutes and the luminescence recorded.
IC50 (EC50) was calculated using a dose-response curve, fitted using a nonlinear regression model with a sigmoidal dose response. Survival rate was calculated using the formula:
The Surviving rate (%)=(LumTest article−LumMedium control)/(LumNon-treated−LumMedium control)×100%.
Absolute IC50 (EC50) was calculated according to the dose-response curve generated by the statistical software (GraphPad Prism 5.0).

Cc1nn(-c2nc(-c3ccc(C(F)(F)F)cc3)c(SC(C)C)s2)c(C(=O)O)c1-c1cccc(F)c1 [Compound A197, 4-(3-fluorophenyl)-1-(5-(isopropylthio)-4-(4-(trifluoromethyl)phenyl)thiazol-2-yl)-3-methyl-1H-pyrazole-5-carboxylic acid]
% inhibition at top conc. (22Rv1 cells, 96 h): 68.15%
% inhibition at top conc. (5637 cells, 96 h): 68.06%
pIC50 (96 h, 5637 cells, 96 h): 6.31
pIC50 (96 h, A3/KAW cells, 96 h): 6.54
pIC50 (96 h, ASH-3 cells, 96 h): < 4.52
pIC50 (96 h, C4-2, 96 h): < 4.52
pIC50 (96 h, CCK-81 cells, 96 h): 6.49
pIC50 (96 h, COV644 cells, 96 h): < 4.52
pIC50 (96 h, H4 cells, 96 h): 6.14
pIC50 (96 h, HCC 94 cells, 96 h): 6.09
pIC50 (96 h, HM-7, 96 h): < 4.52
pIC50 (96 h, IHH-4 cells, 96 h): 6.05
pIC50 (96 h, IM95m cells, 96 h): 6.11
pIC50 (96 h, JHH-5 cells, 96 h): < 4.52
pIC50 (96 h, M059K cells, 96 h): 5.78
pIC50 (96 h, MC/CAR cells, 96 h): 5.48
pIC50 (96 h, NAMALWA cells, 96 h): 6.29
pIC50 (96 h, OCUM-2D cells, 96 h): 5.94
pIC50 (96 h, OCUM-2M cells, 96 h): 6.08
pIC50 (96 h, RBE cells, 96 h): 6.08
pIC50 (96 h, SCH cells, 96 h): < 4.52
pIC50 (96 h, SNU-719 cells, 96 h): < 4.52
pIC50 (96 h, SNU-761 cells, 96 h): 5.95
pIC50 (96 h, SNU-2535 cells, 96 h): 6.12
pIC50 (96 h, SNU-C5 cells, 96 h): < 4.52
pIC50 (96 h, SW 156 cells, 96 h): 5.62
pIC50 (96 h, T.Tn cells, 96 h): 6.08
pIC50 (96 h, TJ905 cells, 96 h): < 4.52
pIC50 (96 h, YCC-1 cells, 96 h): < 4.52
pIC50 (96 h, YCC-2 cells, 96 h): < 4.52
pIC50 (96 h, YCC-6 cells, 96 h): 6.27
pIC50 (96 h, YCC-10, 96 h): < 4.52
pIC50 (A875, 96 h, A875 cells, 96 h): < 4.52
% inhibition at top conc. (A875 cells, 96 h): 10.68%
% inhibition at top conc. (A2058, 96 h): 29.09%
% inhibition at top conc. (A2780 cells, 96 h): 69.48%
pIC50 (A2780cis, 96 h, A2780cis cells, 96 h): 6.27
% inhibition at top conc. (A-204 cells, 96 h): 37.77%
% inhibition at top conc. (A-375, 96 h): 52.11%
% inhibition at top conc. (A-431, 96 h): 66.83%
% inhibition at top conc. (AGS cells, 96 h): 28.18%
% inhibition at top conc. (AN3 CA, 96 h): 35.67%
% inhibition at top conc. (AsPC-1 cells, 96 h): 34.71%
% inhibition at top conc. (C4-2, 96 h): 45.07%
% inhibition at top conc. (C666-1 cells, 96 h): 36.20%
pIC50 (CADO-ES1, CADO-ES1): 6.68
% inhibition at top conc. (CAMA-1, 96 h): 54.72%
% inhibition at top conc. (COLO 205, 96 h): 60.57%
% inhibition at top conc. (COLO 320DM, 96 h): 72.92%
% inhibition at top conc. (COV644 cells, 96 h): 31.57%
% inhibition at top conc. (Calu-3, 96 h): 65.15%
pIC50 (CoC1, 96 h, CoC1/DDP cells, 96 h): < 4.52
pIC50 (CoC1, 96 h, CoC1 cells, 96 h): 5.88
% inhibition at top conc. (DMS 53 cells, 96 h): 85.18%
% inhibition at top conc. (DOHH-2 cells, 96 h): 99.99%
% inhibition at top conc. (DU 145, 96 h): 66.37%
% inhibition at top conc. (EBC-1, 96 h): 42.21%
% inhibition at top conc. (EFM-192A, 96 h): 49.39%
pIC50 (EFM-192A, 96 h, EFM-192A, 96 h): 6.28
% inhibition at top conc. (ES-2 cells, 96 h): 44.22%
% inhibition at top conc. (FaDu, 96 h): 62.82%
% inhibition at top conc. (GTL-16 cells, 96 h): 54.64%
pIC50 (HBL1, HBL-1): 6.15
% inhibition at top conc. (HCC827 cells, 96 h): 63.74%
pIC50 (HCC1500, HCC1500): < 4.52
% inhibition at top conc. (HCC2218, 96 h): 33.43%
% inhibition at top conc. (HCC4006, 96 h): 60.70%
pIC50 (HCCC9810, HCCC-9810): < 4.52
% inhibition at top conc. (HCCLM3 cells, 96 h): 29.79%
% inhibition at top conc. (HGC-27 cells, 96 h): 90.57%
pIC50 (HLF, 96 h, HLF cells, 96 h): < 4.52
% inhibition at top conc. (HM-7, 96 h): 43.55%
% inhibition at top conc. (HT-1080, 96 h): 68.42%
% inhibition at top conc. (Hep G2/C3A, 96 h): 23.83%
pIC50 (HepG2/C3A, 96 h, Hep G2/C3A, 96 h): < 4.52
pIC50 (Homo sapiens, 22Rv1, 96 h, 22Rv1 cells, 96 h): 6.37
pIC50 (Homo sapiens, 769-P, 96 h, 769-P cells, 96 h): 5.98
pIC50 (Homo sapiens, 786-0, 96 h, 786-O cells, 96 h): 5.94
pIC50 (Homo sapiens, 8505C): < 4.52
pIC50 (Homo sapiens, A 172, 96 h, A-172 cells, 96 h): < 4.52
pIC50 (Homo sapiens, A204, 96 h, A-204 cells, 96 h): < 4.52
pIC50 (Homo sapiens, A253, 96 h, A253 cells, 96 h): < 4.52
pIC50 (Homo sapiens, A498, 96 h, A498 cells, 96 h): 6.07
pIC50 (Homo sapiens, A549, 96 h, A549 cells, 96 h): 5.98
pIC50 (Homo sapiens, A673, 96 h, A-673 cells, 96 h): 6.17
pIC50 (Homo sapiens, A2058, 96 h): < 4.52
pIC50 (Homo sapiens, A2780, 96 h, A2780 cells, 96 h): 6.40
pIC50 (Homo sapiens, A-375, 96 h): < 4.52
pIC50 (Homo sapiens, A-427, 96 h, A-427 cells, 96 h): < 4.52
pIC50 (Homo sapiens, A-431, 96 h): 5.94
pIC50 (Homo sapiens, ACHN, 96 h, ACHN cells, 96 h): 6.10
pIC50 (Homo sapiens, AGS, 96 h, AGS cells, 96 h): < 4.52
pIC50 (Homo sapiens, AMO1, 96 h, AMO-1 cells, 96 h): 5.83
pIC50 (Homo sapiens, AN3-CA, 96 h, AN3 CA, 96 h): < 4.52
pIC50 (Homo sapiens, ARH-77, ARH-77): < 4.52
pIC50 (Homo sapiens, ASPC1, 96 h, AsPC-1 cells, 96 h): < 4.52
pIC50 (Homo sapiens, AU565, AU565): 5.00
pIC50 (Homo sapiens, BT-20, 96 h, BT-20 cells, 96 h): < 4.52
pIC50 (Homo sapiens, BT-474, 96 h, BT474 cells, 96 h): < 4.52
pIC50 (Homo sapiens, BT-483, BT-483): < 4.52
pIC50 (Homo sapiens, BT-549, 96 h, BT-549 cells, 96 h): 6.35
pIC50 (Homo sapiens, BXPC-3, BxPC-3): 6.27
pIC50 (Homo sapiens, C6661, 96 h, C666-1 cells, 96 h): < 4.52
pIC50 (Homo sapiens, C-33-A, 96 h, C-33 A cells, 96 h): < 4.52
pIC50 (Homo sapiens, CA46, 96 h, CA46 cells, 96 h): 6.22
pIC50 (Homo sapiens, CAKI-2, Caki-2): < 4.52
pIC50 (Homo sapiens, CAL-27, 96 h, CAL-27 cells, 96 h): 5.40
pIC50 (Homo sapiens, CAL-51, CAL-51): 5.77
pIC50 (Homo sapiens, CAL-120, CAL-120): < 4.52
pIC50 (Homo sapiens, CAMA-1, 96 h): 6.16
pIC50 (Homo sapiens, CAPAN-1, Capan-1): < 4.52
pIC50 (Homo sapiens, CCRF-CEM): 6.24
pIC50 (Homo sapiens, CFPAC-1, CFPAC-1): < 4.52
pIC50 (Homo sapiens, COLO 205, 96 h): 5.94
pIC50 (Homo sapiens, COLO 320DM, 96 h, COLO 320DM, 96 h): 6.31
pIC50 (Homo sapiens, Ca-Ski, 96 h, Ca Ski cells, 96 h): < 4.52
pIC50 (Homo sapiens, Caco-2, 96 h, Caco-2 cells, 96 h): < 4.52
pIC50 (Homo sapiens, Calu-1, Calu-1): 5.98
pIC50 (Homo sapiens, Calu-3, 96 h): 5.76
pIC50 (Homo sapiens, Calu-6, Calu-6): < 4.52
pIC50 (Homo sapiens, Caov-3, 96 h, Caov-3 cells, 96 h): < 4.52
pIC50 (Homo sapiens, Capan-2, Capan-2): < 4.52
pIC50 (Homo sapiens, DLD-1, DLD-1): 6.38
pIC50 (Homo sapiens, DMS-53, 96 h, DMS 53 cells, 96 h): 5.97
